Tests used:
CYP2C9 = CYP2C9 (Homo sapiens, UniProt P11712); test: CYP inhibition assay; type: in vitro ADME; conditions: read-out: % Inhibition at 30 μM CYP 2C9
CDK 4/6 or other kinases = test: Kinase panel assay (whole panel); type: biochemical; conditions: 10 μM, in words
Source text: Compound 42 was also screened in a kinase panel assay.

Ovarian OVCAR-3 = test: Cancer cell proliferation assay (acid phosphatase); type: cell-based; conditions: Homo sapiens, Table 6E
How it was run: (§1)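 Growth inhibition is expressed as a percentage of DMSO-treated control cells, using absorbance at 405 nm corrected at 620 nm after acid phosphatase conversion of p-nitrophenol phosphate. Compound exposure lasts 72 hrs at 37° C. following overnight attachment.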

Mantle Cell Mino = test: Cancer cell proliferation assay (acid phosphatase); type: cell-based; conditions: Homo sapiens, Table 6E
How it was run: as §1

SW626 (ovarian) = test: Cancer cell proliferation assay (acid phosphatase); type: cell-based; conditions: Homo sapiens
How it was run: as §1

PDE4D2 (h) = PDE4D2 (h) (Homo sapiens, UniProt Q08499); test: Selectivity screen, radioligand displacement; type: binding; conditions: read-out: % Inhib PDE4D2 (h)
Source text: (§2) If the % inhibition is less than 50%, the test compounds is consider to have no effect.

acetylcholinesterase (h) = acetylcholinesterase (h) (Homo sapiens, UniProt P22303); test: Selectivity screen, radioligand displacement; type: binding; conditions: read-out: % Inhib acetylcholinesterase (h)
Source text: as §2

M1 (h) = M1 (h) (Homo sapiens, UniProt P11229); test: Selectivity screen, radioligand displacement; type: binding
Sequence of M1 (h) (P11229 whole entry): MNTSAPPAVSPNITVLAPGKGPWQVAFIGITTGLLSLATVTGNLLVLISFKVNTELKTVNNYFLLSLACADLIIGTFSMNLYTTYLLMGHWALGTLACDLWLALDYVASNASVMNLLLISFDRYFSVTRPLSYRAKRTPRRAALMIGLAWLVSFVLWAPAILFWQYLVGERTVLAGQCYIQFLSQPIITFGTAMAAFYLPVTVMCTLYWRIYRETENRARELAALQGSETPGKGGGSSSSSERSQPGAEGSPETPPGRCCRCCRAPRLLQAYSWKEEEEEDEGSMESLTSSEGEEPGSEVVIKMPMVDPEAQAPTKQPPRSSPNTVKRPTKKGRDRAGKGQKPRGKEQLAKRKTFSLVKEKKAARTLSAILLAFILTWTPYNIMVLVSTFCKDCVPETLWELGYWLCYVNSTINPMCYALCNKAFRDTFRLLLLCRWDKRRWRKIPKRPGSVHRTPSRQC
Source text: as §2

Lck kinase (h) = Lck kinase (h) (Homo sapiens, UniProt P06239); test: Selectivity screen, radioligand displacement; type: binding; conditions: read-out: % Inhib Lck kinase (h)
Source text: as §2

5-HT1B = 5-HT1B (Rattus norvegicus, UniProt P28564); test: Selectivity screen, radioligand displacement; type: binding; conditions: read-out: % Inhib 5-HT1B
Source text: as §2

CCK1 (CCKA) (h) = CCK1 (CCKA) (h) (Homo sapiens, UniProt P32238); test: Selectivity screen, radioligand displacement; type: binding; conditions: read-out: % Inhib CCK1 (CCKA) (h)
Source text: as §2

[1] = target: norepinephrine transporter (h) (Homo sapiens, UniProt P23975); test: Selectivity screen, radioligand displacement; type: binding; conditions: read-out: % Inhib norepinephrine transporter (h)
Source text: as §2

KV channel = test: Selectivity screen, radioligand displacement; type: binding; conditions: Compound 42 at 10 μM
Source text: as §2

delta (DOP) (h) = delta (DOP) (h) (Homo sapiens, UniProt P41143); test: Selectivity screen, radioligand displacement; type: binding; conditions: read-out: % Inhib delta (DOP) (h)
Sequence of delta (DOP) (h) (P41143 whole entry): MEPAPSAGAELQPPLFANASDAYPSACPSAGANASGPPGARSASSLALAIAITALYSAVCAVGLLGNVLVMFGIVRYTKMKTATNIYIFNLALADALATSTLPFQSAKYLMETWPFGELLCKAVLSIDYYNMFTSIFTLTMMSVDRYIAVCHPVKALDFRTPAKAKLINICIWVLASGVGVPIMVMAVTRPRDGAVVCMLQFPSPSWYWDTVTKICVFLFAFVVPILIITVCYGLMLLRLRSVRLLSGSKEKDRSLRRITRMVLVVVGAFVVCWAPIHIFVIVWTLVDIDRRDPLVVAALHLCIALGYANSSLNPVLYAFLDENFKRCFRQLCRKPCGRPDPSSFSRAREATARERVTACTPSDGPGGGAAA
Source text: as §2

beta 2(h) = beta 2(h) (Homo sapiens, UniProt P07550); test: Selectivity screen, radioligand displacement; type: binding; conditions: read-out: % Inhib beta 2(h)
Source text: as §2

hERG potassium channel = hERG potassium channel (Homo sapiens, UniProt Q12809); test: Selectivity screen, radioligand displacement; type: binding; conditions: read-out: % Inhib Potassium Channel hERG (human)
Sequence of hERG potassium channel (Q12809 whole entry): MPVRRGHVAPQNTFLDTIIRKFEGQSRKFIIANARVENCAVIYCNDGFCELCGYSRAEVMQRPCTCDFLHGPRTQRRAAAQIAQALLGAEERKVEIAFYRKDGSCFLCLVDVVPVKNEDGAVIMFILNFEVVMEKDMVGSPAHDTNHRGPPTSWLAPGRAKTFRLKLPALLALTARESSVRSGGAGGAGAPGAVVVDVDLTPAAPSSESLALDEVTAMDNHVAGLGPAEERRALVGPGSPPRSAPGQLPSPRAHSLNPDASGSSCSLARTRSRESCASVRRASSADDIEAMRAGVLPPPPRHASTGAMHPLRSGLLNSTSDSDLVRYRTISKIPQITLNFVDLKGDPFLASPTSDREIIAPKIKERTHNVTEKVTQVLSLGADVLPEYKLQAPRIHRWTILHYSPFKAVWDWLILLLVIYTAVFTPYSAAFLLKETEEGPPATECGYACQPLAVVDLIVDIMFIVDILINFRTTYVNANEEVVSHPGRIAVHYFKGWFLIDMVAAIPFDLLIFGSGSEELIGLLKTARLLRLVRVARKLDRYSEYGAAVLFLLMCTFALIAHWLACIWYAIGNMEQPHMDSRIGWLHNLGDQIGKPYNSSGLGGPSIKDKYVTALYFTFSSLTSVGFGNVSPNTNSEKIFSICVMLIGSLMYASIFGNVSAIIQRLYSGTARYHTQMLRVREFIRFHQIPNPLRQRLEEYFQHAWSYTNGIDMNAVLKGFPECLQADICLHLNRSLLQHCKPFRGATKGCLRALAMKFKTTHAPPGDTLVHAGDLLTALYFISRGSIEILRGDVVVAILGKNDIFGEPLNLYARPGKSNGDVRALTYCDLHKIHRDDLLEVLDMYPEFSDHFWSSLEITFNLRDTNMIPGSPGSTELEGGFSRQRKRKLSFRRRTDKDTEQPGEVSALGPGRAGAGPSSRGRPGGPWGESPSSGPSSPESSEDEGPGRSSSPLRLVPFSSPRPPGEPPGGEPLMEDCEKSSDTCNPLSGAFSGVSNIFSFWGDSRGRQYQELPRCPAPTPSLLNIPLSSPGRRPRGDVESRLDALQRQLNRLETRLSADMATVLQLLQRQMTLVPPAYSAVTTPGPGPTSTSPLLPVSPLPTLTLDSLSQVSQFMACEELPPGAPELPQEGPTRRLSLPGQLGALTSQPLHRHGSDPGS
Source text: as §2

V1a (h) = V1a (h) (Homo sapiens, UniProt P37288); test: Selectivity screen, radioligand displacement; type: binding; conditions: read-out: % Inhib V1a (h)
Sequence of V1a (h) (P37288 whole entry): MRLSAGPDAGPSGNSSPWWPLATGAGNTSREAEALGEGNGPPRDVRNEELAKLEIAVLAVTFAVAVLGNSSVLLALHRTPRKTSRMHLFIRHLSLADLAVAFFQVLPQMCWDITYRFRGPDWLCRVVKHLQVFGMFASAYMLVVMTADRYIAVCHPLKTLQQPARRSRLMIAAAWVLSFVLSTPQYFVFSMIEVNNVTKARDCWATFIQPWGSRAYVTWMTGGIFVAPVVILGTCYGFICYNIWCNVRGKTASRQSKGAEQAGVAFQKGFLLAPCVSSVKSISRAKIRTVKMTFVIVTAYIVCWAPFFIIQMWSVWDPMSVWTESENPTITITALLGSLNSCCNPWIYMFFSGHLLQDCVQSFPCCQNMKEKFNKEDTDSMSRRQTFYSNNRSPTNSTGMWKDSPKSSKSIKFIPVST
Source text: as §2

A2A(h) = A2A(h) (Homo sapiens, UniProt P29274); test: Selectivity screen, radioligand displacement; type: binding; conditions: read-out: % Inhib A2A(h)
Sequence of A2A(h) (P29274 whole entry): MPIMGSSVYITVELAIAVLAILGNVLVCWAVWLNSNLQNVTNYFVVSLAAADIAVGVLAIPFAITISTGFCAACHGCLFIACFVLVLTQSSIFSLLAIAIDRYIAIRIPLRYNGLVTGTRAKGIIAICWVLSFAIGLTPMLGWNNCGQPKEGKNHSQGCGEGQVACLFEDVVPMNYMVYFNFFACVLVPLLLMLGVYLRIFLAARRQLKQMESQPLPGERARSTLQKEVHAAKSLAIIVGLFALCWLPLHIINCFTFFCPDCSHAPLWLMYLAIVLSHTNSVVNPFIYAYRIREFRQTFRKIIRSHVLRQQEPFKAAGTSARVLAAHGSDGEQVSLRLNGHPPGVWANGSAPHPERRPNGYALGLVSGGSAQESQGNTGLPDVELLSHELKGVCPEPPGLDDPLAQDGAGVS
Source text: as §2

H1 (h) = H1 (h) (Homo sapiens, UniProt P35367); test: Selectivity screen, radioligand displacement; type: binding
Source text: as §2

[2] = target: N neuronal alpha 4beta 2 (h) (Homo sapiens, UniProt P17787+P43681); test: Selectivity screen, radioligand displacement; type: binding; conditions: read-out: % Inhib N neuronal alpha 4beta 2 (h)
Sequence of N neuronal alpha 4beta 2 (h) (P43681 29-627 limits assumed): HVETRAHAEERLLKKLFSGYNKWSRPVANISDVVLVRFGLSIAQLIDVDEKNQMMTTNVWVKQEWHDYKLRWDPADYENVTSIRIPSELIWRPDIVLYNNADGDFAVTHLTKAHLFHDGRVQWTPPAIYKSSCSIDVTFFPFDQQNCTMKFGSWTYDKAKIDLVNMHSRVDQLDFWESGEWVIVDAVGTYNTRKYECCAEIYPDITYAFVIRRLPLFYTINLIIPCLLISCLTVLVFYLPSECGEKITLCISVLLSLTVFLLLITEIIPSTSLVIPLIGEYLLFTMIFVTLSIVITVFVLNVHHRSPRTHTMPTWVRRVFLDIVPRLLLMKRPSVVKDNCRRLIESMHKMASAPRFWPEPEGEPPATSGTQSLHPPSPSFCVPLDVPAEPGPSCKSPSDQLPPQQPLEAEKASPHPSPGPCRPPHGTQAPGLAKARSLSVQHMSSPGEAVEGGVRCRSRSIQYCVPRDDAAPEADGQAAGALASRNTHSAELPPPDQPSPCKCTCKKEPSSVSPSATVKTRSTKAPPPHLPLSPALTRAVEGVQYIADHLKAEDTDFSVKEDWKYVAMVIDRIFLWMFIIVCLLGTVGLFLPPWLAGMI
Sequence of N neuronal alpha 4beta 2 (h) (P17787 26-502): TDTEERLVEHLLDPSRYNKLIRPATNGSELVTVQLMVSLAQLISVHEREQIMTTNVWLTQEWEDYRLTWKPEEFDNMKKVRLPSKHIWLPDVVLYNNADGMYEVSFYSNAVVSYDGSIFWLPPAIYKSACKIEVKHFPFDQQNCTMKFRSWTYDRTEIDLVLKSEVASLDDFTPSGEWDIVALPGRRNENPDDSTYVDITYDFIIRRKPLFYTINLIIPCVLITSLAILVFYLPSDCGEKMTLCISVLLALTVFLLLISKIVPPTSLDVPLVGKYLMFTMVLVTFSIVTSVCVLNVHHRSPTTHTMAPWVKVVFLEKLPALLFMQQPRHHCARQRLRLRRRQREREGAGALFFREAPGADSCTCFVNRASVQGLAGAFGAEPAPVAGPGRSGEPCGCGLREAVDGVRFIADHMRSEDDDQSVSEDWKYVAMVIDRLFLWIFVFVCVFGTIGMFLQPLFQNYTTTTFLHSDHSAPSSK
Source text: as §2

5-HT2A (h) = 5-HT2A (h) (Homo sapiens, UniProt P28223); test: Selectivity screen, radioligand displacement; type: binding; conditions: read-out: % Inhib 5-HT2A (h)
Sequence of 5-HT2A (h) (P28223 whole entry): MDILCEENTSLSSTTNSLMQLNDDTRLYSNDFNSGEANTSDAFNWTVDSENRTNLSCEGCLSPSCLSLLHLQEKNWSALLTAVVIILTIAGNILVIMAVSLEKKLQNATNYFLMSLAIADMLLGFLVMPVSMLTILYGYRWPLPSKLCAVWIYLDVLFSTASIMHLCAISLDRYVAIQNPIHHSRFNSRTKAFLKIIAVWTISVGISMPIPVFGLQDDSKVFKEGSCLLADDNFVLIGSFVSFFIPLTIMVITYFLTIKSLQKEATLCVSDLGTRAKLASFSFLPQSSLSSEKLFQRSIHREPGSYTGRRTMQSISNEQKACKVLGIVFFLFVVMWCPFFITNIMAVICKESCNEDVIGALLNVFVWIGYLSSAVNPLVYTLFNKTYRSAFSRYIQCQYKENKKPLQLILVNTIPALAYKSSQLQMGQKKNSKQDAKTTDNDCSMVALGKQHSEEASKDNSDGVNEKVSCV
Source text: as §2

MAO-A = MAO-A (Rattus norvegicus, UniProt P21396); test: Selectivity screen, radioligand displacement; type: binding; conditions: read-out: % Inhib MAO-A
Sequence of MAO-A (P21396 whole entry): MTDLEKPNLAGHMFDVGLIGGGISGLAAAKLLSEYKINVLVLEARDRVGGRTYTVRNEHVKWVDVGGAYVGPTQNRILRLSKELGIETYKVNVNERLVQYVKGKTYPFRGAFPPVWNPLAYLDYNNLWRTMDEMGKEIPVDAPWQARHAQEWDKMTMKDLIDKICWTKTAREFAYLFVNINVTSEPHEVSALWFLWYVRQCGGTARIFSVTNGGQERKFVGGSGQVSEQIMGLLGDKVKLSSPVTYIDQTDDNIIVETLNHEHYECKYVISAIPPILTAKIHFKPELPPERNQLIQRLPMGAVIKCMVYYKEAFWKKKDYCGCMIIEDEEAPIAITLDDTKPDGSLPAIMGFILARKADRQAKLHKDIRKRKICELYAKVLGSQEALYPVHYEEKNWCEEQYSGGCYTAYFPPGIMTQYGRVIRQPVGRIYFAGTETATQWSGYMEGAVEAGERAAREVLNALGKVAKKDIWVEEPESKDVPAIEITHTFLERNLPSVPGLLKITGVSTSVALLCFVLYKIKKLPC
Source text: as §2

CB1 (h) = CB1 (h) (Homo sapiens, UniProt P21554); test: Selectivity screen, radioligand displacement; type: binding; conditions: read-out: % Inhib CB1 (h)
Source text: as §2

5-HT2B (h) = 5-HT2B (h) (Homo sapiens, UniProt P41595); test: Selectivity screen, radioligand displacement; type: binding; conditions: read-out: % Inhib 5-HT2B (h)
Source text: as §2

NMDA = test: Selectivity screen, radioligand displacement; type: binding; conditions: Compound 42 at 10 μM
Source text: as §2

5-HT1A (h) = 5-HT1A (h) (Homo sapiens, UniProt P08908); test: Selectivity screen, radioligand displacement; type: binding; conditions: read-out: % Inhib 5-HT1A (h)
Source text: as §2

SMILES: Cc1ccccc1C(=O)Nc1nc(NC(=O)c2ccccc2C)n(-c2ccc(OC(F)(F)F)cc2)n1 [Compound 42, N,N′-(1-(4-(trifluoromethoxy)phenyl)-1H-1,2,4-triazole-3,5-diyl)bis(2-methylbenzamide)]
- inhibition at 30 μM (CYP2C9): 11.8%
- inhibition of CDK 4/6 or other kinases (CDK 4/6 or other kinases): does not inhibit
- IC50 (Ovarian OVCAR-3): 140 nM
- IC50 (Mantle Cell Mino): 345 nM
- IC50 (SW626 (ovarian); Table 6C, data of FIG. 2): 0.3 µM
- EC50 (SW626 (ovarian); Table 6D, another set of cell proliferation assay): 334 nM
- inhibition at 10 µM (PDE4D2 (h)): 35%
- inhibition at 10 µM (acetylcholinesterase (h)): 1%
- inhibition at 10 µM (M1 (h)): 4%
- inhibition at 10 µM (Lck kinase (h)): 8%
- inhibition at 10 µM (5-HT1B): 1%
- inhibition at 10 µM (CCK1 (CCKA) (h)): < 1%
- inhibition at 10 µM [1]: 1%
- % Inhib KV channel (KV channel): 1%
- inhibition at 10 µM (delta (DOP) (h)): 9%
- inhibition at 10 µM (beta 2(h)): 9%
- inhibition at 10 µM (hERG potassium channel): 1%
- inhibition at 10 µM (V1a (h)): 5%
- inhibition at 10 µM (A2A(h)): 7%
- inhibition at 10 µM (H1 (h)): < 1%
- inhibition at 10 µM [2]: < 1%
- inhibition at 10 µM (5-HT2A (h)): 4%
- inhibition at 10 µM (MAO-A): 4%
- inhibition at 10 µM (CB1 (h)): < 1%
- inhibition at 10 µM (5-HT2B (h)): < 1%
- % Inhib NMDA (NMDA): 8%
- inhibition at 10 µM (5-HT1A (h)): 10%
